The record followed here is publication PMC6657890 (PLoS ONE, 2019).

SMILES strings stand for the structures. pKd: −log10 of the molar value.

The target in the test is T1, CV-IIL (Chromobacterium violaceum, UniProt Q7NX84).
T1 construct: gene CV_1744
Type of test: binding.

T1 sequence (Q7NX84 2-114 limits assumed): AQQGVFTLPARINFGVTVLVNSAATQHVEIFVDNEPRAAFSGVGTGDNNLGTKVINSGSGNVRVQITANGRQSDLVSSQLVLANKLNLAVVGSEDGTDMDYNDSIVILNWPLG

Usually pKd stands for −log10 of the Kd, conventionally taken in molar units. `OC[C@H]1OC(O)[C@@H](O)[C@@H](O)[C@@H]1O` (stereo partly drawn) [D-mannose] showed a negative logarithm of the Kd (pKd) of 4.59.

`C[C@@H]1OC(O)[C@@H](O)[C@H](O)[C@@H]1O` (stereo partly drawn) [L-fucose] gave a pKd of 5.09.
